Data on 8 molecules can be found in patent EP4653440A1, “HETEROCYCLIC COMPOUND, AND PHARMACEUTICAL COMPOSITION AND USE THEREOF” (Prime Gene Therapeutics Co., Ltd., priority 2023, dated 2024).

Assay [1] concerns phosphorylation of myosin light chain T18/S19. Description: In Cell Western for phosphorylation of myosin light chain in A7r5 cells. The class given is cell-based, rat. As to conditions: Rattus norvegicus, A7R5, 1 h. The text has this: The rat smooth muscle cell line A7r5 was used, and the A7r5 cell culture conditions were DMEM containing 10% FBS. Phspho-MLC-T18/S19 specific antibody and a second detection antibody were used to detect the phosphorylation level of myosin light chain by In Cell Western. Cells treated with positive compounds were used as positive controls, while the group without compounds but with compound solvents was used as negative controls. DRAQ5 stained cell nuclei were used as internal references. GraphPad Prism 7.0 software was used, and fitting was carried out by using a non-linear regression curve with varying slopes to determine the absolute IC50 value.
On the first day, A7r5 cells were resuspended in serum-free medium and seeded into 384 wells of PDL coated transparent black plates at a density of 5000 cells per well. Serum starvation culture was performed for 4 hours, and the cells were incubated with the compound in serum-free medium for 1 hour. 50 µL of 8% PFA (polyformaldehyde) was added to each well and fixed at room temperature for 1 hour. The liquid in the wells was discard and 90 µL of ice methanol was added to each well to permeabilize the cells at 4 °C for 1 hour. Then, PBST (0.1% Tween20-PBS) was added using an automatic separator to wash three times. After patting the plate for drying, 50 µL blocking solution was added to each well for sealing at room temperature for 1 hour. The phspho-MLC-T18/S19 specific antibody was diluted with the blocking solution at a ratio of 1:200. After adding 20 µL to each well, incubation was carried out overnight at 4 °C with a sealed film.
On the second day, the liquid in the wells was discarded and PBST was added using an automatic separator to wash the plate 5 times. After patting the plate for drying, the second detection antibody was diluted with blocking solution at a ratio of 1:800 and DRAQ5 at a ratio of 1:1000. After adding 20 µL to each well, incubation was carried out at room temperature for 1 hour. Then, the liquid in the wells was discarded and PBST was added using an automatic separator to wash the plate 3 times, followed by adding ddH2O to wash the plate 3 times. After patting the plate for drying, it was scaned using a LICOR Odyssey near-infrared imaging scanner.

The next assay has as its target ROCK1 (Homo sapiens, UniProt Q13464). The assay is described as follows: ROCK1 kinase enzymatic activity (HTRF, STK2 substrate). The class given is biochemical. The settings on record: ROCK1 kinase reaction 20 minutes at room temperature. An excerpt:
(§1) The kinase activity data was expressed by comparing the kinase activity of the test compound and that of the blank group (containing only DMSO), and the IC50 value was obtained by curve fitting using Prism software (GraphPad7.0).
In general terms: Time-resolved FRET reads energy transfer from a long-lived donor to a nearby acceptor.

For assay [2], the system named is Norwegian rat glaucoma model induced by hypertonic saline solution. The assay is described as follows: Norwegian rat glaucoma model induced by hypertonic saline solution (intraocular pressure). It counts as in vivo. As to conditions: 0.02% eye drops once a day, one drop; compared with model control group; 0 to 24 hours after administration. An excerpt:
Experimental method: after animal anesthesia, the lateral canthus of the right eye was incised, and a polypropylene ring was placed at the equator of the eyeball, with the notch of the ring located in the upper quadrant of the eyeball, leaving only one scleral surface vein above. […] After injection, the polypropylene ring was removed and antibiotic eye ointment was applied to the operated eye.
After modeling, a rebound tonometer was used continuously to measure the intraocular pressure of both eyes, once every 3 days, and the average of 6 measurements was took each time and recorded; After the intraocular pressure had been stabilized (about 20 days later), the subjects were randomly divided into three groups based on the most recent measurement of intraocular pressure and body weight: sham surgery group, model control group, and test drug group (0.02% Example 29) group, with 5 animals in each group. After grouping, eye drops were administered once a day, with one drop per time. During the administration period, dynamic intraocular pressure was measured once a week (detecting the intraocular pressure change curve from 0 to 24 hours after administration) until the end of the experiment.

A further assay addresses ROCK2 (Homo sapiens, UniProt O75116). The assay is described as follows: ROCK2 kinase enzymatic activity (HTRF, STK2 substrate). The settings on record: ROCK2 kinase reaction 30 minutes at room temperature. It counts as biochemical.
Text: as §1

The structures appear in SMILES notation. Bounds are passed on as bounds.

Broadly, the IC50 is the midpoint of a concentration-inhibition curve. Low values mean greater potency in that assay, high ones weaker potency in that assay.

Chain of ROCK2 (O75116 whole entry): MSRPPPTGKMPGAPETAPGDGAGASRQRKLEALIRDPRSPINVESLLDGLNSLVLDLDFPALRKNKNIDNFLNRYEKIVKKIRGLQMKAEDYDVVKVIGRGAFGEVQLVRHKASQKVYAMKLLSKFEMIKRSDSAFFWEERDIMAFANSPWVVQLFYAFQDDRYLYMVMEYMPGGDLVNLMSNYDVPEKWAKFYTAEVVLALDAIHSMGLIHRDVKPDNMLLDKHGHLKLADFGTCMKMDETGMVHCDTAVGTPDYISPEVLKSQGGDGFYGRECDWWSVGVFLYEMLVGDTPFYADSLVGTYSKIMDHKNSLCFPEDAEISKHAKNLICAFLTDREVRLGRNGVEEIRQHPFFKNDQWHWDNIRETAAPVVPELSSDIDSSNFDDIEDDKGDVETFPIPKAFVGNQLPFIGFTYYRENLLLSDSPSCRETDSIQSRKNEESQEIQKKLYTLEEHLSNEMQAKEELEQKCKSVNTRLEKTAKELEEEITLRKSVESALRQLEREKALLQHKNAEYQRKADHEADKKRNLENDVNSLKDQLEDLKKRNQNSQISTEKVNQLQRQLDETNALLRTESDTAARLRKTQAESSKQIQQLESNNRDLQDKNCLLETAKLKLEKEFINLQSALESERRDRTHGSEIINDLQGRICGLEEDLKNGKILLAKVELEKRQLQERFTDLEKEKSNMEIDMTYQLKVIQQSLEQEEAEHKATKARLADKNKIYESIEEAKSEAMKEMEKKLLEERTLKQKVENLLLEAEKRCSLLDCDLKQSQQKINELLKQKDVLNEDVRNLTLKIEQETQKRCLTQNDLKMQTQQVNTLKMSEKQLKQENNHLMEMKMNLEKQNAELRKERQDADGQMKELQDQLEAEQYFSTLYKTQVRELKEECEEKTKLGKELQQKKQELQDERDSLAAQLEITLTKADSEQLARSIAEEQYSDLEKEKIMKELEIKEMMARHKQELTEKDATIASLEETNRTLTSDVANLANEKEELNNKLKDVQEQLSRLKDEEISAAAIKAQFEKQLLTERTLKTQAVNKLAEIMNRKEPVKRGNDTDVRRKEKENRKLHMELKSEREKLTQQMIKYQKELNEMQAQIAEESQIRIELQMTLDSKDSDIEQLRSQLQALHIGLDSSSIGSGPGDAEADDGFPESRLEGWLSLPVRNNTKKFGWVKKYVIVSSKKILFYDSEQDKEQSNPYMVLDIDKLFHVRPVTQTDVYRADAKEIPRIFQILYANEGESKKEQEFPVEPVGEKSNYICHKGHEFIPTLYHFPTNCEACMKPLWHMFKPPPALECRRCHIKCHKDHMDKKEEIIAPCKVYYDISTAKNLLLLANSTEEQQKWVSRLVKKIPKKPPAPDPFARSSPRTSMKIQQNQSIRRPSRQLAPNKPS
Chain of ROCK1 (Q13464 whole entry): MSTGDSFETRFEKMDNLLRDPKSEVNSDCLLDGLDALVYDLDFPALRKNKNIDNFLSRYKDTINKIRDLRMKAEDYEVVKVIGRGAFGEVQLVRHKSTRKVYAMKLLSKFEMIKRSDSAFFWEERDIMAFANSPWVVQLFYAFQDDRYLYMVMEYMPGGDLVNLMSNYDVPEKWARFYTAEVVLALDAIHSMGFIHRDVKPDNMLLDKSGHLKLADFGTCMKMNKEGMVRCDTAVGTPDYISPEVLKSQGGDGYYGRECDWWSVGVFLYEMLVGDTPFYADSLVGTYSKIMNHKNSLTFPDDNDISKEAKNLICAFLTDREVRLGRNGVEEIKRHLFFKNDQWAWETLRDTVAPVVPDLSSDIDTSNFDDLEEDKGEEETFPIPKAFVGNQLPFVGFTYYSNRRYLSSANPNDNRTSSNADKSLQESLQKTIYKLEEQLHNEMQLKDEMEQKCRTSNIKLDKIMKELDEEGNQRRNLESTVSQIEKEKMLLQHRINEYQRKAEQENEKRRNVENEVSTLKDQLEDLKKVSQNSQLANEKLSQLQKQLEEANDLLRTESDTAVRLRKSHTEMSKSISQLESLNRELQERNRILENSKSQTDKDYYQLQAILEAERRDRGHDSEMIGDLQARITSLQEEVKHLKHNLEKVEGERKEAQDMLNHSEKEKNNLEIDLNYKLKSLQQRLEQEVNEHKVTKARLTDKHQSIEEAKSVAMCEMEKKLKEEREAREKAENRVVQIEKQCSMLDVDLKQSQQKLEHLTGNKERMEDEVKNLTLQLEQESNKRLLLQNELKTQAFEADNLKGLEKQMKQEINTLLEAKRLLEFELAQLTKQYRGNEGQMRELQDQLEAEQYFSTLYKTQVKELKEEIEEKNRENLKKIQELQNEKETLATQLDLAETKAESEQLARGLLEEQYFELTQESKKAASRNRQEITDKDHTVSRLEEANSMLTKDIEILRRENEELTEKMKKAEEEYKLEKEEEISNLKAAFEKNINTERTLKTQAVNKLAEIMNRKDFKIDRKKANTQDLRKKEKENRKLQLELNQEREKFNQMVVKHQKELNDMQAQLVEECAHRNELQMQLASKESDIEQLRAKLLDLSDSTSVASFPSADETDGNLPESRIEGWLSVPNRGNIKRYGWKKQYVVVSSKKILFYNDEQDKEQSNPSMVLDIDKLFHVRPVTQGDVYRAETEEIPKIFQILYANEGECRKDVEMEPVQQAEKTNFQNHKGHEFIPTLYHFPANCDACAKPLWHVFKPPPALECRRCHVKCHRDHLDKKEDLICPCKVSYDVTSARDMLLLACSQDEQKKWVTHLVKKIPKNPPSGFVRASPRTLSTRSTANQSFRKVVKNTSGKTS

`N#CC[C@H](C1CCCCC1)n1cc(-c2ncnc3[nH]ccc23)c(N)n1` [Example 29, (R)-3-(3-amino-4-(7H-pyrrolo[2,3-d]pyrimidin-4-yl)-1H-pyrazol-1-yl)-3-cyclohexylpropionitrile]: the IC50 was 0.106 µM in assay [1], less than 5 nM at ROCK1 and less than 5 nM at ROCK2. For the same molecule, in assay [2], the intraocular pressure entry was “significantly decreased”.
Consider `N#CC[C@@H](C1CCCCC1)n1cc(-c2ncnc3[nH]ccc23)c(N)n1` [Example 30, (S)-3-(3-amino-4-(7H-pyrrolo[2,3-d]pyrimidin-4-yl)-1H-pyrazol-1-yl)-3-cyclohexylpropionitrile], for which the half-maximal inhibitory concentration (IC50) in assay [1] is 0.182 µM; at ROCK1, less than 5 nM; on ROCK2, less than 5 nM.
With `N#CCC1(n2cc(-c3ncnc4[nH]ccc34)c(N)n2)CCS(=O)(=O)CC1` [Example 1, 2-(4-(3-amino-4-(7H-pyrrolo[2,3-d]pyrimidin-4-yl)-1H-pyrazol-1-yl)-1,1-dioxidotetrahydro-2H-thiopyran-4-yl)acetonitrile], the half-inhibitory concentration (IC50) in assay [1] was 0.092 µM; on ROCK1, less than 2 nM; against ROCK2, less than 1 nM.
On the same counts, the results for `N#CC1CCCC1n1cc(-c2ncnc3[nH]ccc23)c(N)n1` (stereo not shown) [Example 7, 2-(3-amino-4-(7H-pyrrolo[2,3-d]pyrimidin-4-yl)-1H-pyrazol-1-yl)cyclopentane-1-nitrile] are 1.86 µM, less than 50 nM and less than 50 nM.
Take `N#CCC(C1CCCCC1)n1cc(-c2ncnc3[nH]ccc23)c(N)n1` (stereo not shown) [Example 14, 3-(3-amino-4-(7H-pyrrolo[2,3-d]pyrimidin-4-yl)-1H-pyrazol-1-yl)-3-cyclohexylpropionitrile]: the figures for the IC50 (in assay [1]; on ROCK1; against ROCK2) were 0.175 µM, less than 5 nM and less than 5 nM, respectively.
Turning to `N#CCC(C1CC2(CC2)C1)n1cc(-c2ncnc3[nH]ccc23)c(N)n1` (stereo not shown) [Example 21, 3-(3-amino-4-(7H-pyrrolo[2,3-d]pyrimidin-4-yl)-1H-pyrazol-1-yl)-3-(spiro[2.3]hexan-5-yl)propionitrile], the half-inhibitory concentration (IC50) in assay [1] was 0.185 µM; against ROCK1, less than 5 nM; at ROCK2, less than 5 nM.
Turning to `N#CC[C@H](C1CCC1)n1cc(-c2ncnc3[nH]ccc23)c(N)n1` [Example 27, (R)-3-(3-amino-4-(7H-pyrrolo[2,3-d]pyrimidin-4-yl)-1H-pyrazol-1-yl)-3-cyclobutylpropionitrile], the concentration for half-maximal inhibition (IC50) was 0.095 µM in assay [1], less than 5 nM on ROCK1 and less than 5 nM on ROCK2.
Turning to `N#CC[C@]1(n2cc(-c3ncnc4[nH]ccc34)c(N)n2)C[C@H](C#N)C1` [Example 10, (1r,3r)-3-(3-amino-4-(7H-pyrrolo[2,3-d]pyrimidin-4-yl)-1H-pyrazol-1-yl)-3-(cyanomethyl)cyclobutane-1-carbonitrile], the IC50 in assay [1] was 0.048 µM; against ROCK1, less than 2 nM; against ROCK2, less than 1 nM.
